Reference: patent publication US20130040882A1, “USE OF FIBROBLAST GROWTH FACTOR FRAGMENTS” (NOVARTIS AG, priority 2003, published 2013)

Test system: uterine gene expression
Test: Gene expression profiling (HGU133A) in the uterus of ovariectomized monkeys treated with estradiol, tamoxifen or raloxifene
Type: in vivo, cynomolgus monkeys (Macaca fascicularis)
Conditions: uterus, OVX monkeys

## C#C[C@]1(O)CC[C@H]2[C@@H]3CCc4cc(O)ccc4[C@H]3CC[C@@]21C [EE]
  Fold change relative to SHAM control: Insulin-like growth factor binding protein 2, 36 kda: 4.4 fold
  Fold change relative to SHAM control: Insulin-like growth factor binding protein 5: 2.8 fold
  Fold change relative to SHAM control: Integrin, beta 5: 1.0 fold
  Fold change relative to SHAM control: Intercrine-alpha, mrna sequence: 0.9 fold
  Fold change relative to SHAM control: LDL receptor adaptor protein: 0.8 fold
  Fold change relative to SHAM control: LIM and senescent cell antigen-like domains 1: 1.4 fold
  Fold change relative to SHAM control: Laminin, beta 1: 1.0 fold
  Fold change relative to SHAM control: Latent transforming growth factor beta binding protein 1: 1.7 fold
  Fold change relative to SHAM control: Matrix metalloproteinase 19: 1.2 fold
  Fold change relative to SHAM control: Mitogen-activated protein kinase kinase kinase kinase 4: 0.9 fold
  Fold change relative to SHAM control: Nidogen (enactin): 2.6 fold
  Fold change relative to SHAM control: Osteoglycin (osteoinductive factor, mimecan): 1.0 fold
  Fold change relative to SHAM control: Peroxiredoxin 1: 1.6 fold
  Fold change relative to SHAM control: Phosphatase and tensin homolog (mutated in multiple advanced cancers 1): 1.2 fold
  Fold change relative to SHAM control: Phospholipid transfer protein: 1.3 fold
  Fold change relative to SHAM control: Pituitary tumour-transforming 1 interacting protein: 0.9 fold
  Fold change relative to SHAM control: Procollagen C-endopeptidase enhancer: 1.5 fold
  Fold change relative to SHAM control: Procollagen-proline, 2-oxoglutarate 4-dioxygenase (proline 4-hydroxylase), alpha polypeptide II: 1.7 fold
  Fold change relative to SHAM control: Progesterone receptor: 3.2 fold
  Fold change relative to SHAM control: Protein tyrosine kinase 9: 1.3 fold
  Fold change relative to SHAM control: SET domain, bifurcated 1: 2.3 fold
  Fold change relative to SHAM control: SPARC-like 1 (mast9, hevin): 1.5 fold
  Fold change relative to SHAM control: Secreted frizzled-related protein 1: 3.6 fold
  Fold change relative to SHAM control: Secreted frizzled-related protein 4: 1.9 fold
  Fold change relative to SHAM control: Secreted protein, acidic, cysteine-rich (osteonectin): 1.4 fold
  Fold change relative to SHAM control: Serine (or cysteine) proteinase inhibitor, clade H (heat shock protein 47), member 1, (collagen binding protein 1): 1.6 fold
  Fold change relative to SHAM control: Solute carrier family 22 (organic cation transporter), member 1-like: 1.6 fold
  Fold change relative to SHAM control: Solute carrier family 25 (mitochondrial carrier; adenine nucleotide translocator), member 5: 1.7 fold
  Fold change relative to SHAM control: Stem cell growth factor; lymphocyte secreted C-type lectin: 1.4 fold
  Fold change relative to SHAM control: Tenascin C (hexabrachion): 0.9 fold
  Fold change relative to SHAM control: Testis Enhanced Gene Transcript (Bax Inhibitor 1): 1.8 fold
  Fold change relative to SHAM control: Thioredoxin interacting protein: 0.5 fold
  Fold change relative to SHAM control: Transforming growth factor, beta-induced, 68 kda: 0.8 fold
  Fold change relative to SHAM control: Ubiquinol-cytochrome c reductase, Rieske iron-sulfur polypeptide 1: 1.1 fold
  Fold change relative to SHAM control: Wingless-type MMTV integration site family, member 2B: 1.5 fold
  Fold change relative to SHAM control: Wingless-type MMTV integration site family, member 16: 0.9 fold
Table 46
  Fold change relative to OVX: Insulin receptor: 0.8 fold
  Fold change relative to SHAM control: Insulin receptor: 1.2 fold
Table 51
  Fold change relative to OVX: Insulin receptor: 0.8 fold
  Fold change relative to SHAM control: Insulin receptor: 1.2 fold
Entry with OVX average 39
  Fold change relative to OVX: Fibronectin 1: 1.6 fold
Entry with OVX average 79
  Fold change relative to OVX: Bone morphogenetic protein 1: 2.6 fold
Entry with OVX average 93
  Fold change relative to OVX: Bone morphogenetic protein 1: 2.9 fold
Entry with OVX average 102
  Fold change relative to OVX: Insulin-like growth factor 1 (somatomedin C): 5.3 fold
Entry with OVX average 124
  Fold change relative to OVX: Fibrillin 1 (Marfan syndrome): 2.2 fold
Entry with OVX average 154
  Fold change relative to OVX: Collagen, type I, alpha 2: 13.2 fold
Entry with OVX average 156
  Fold change relative to OVX: Insulin-like growth factor 1 (somatomedin C): 6.9 fold
Entry with OVX average 171
  Fold change relative to OVX: Solute carrier family 2 (facilitated glucose/fructose transporter), member 5: 4.4 fold
Entry with OVX average 176
  Fold change relative to OVX: Solute carrier family 2 (facilitated glucose/fructose transporter), member 5: 3.5 fold
Entry with OVX average 182
  Fold change relative to OVX: Collagen, type IV, alpha 1: 4.3 fold
Entry with OVX average 224
  Fold change relative to OVX: Cyclin-dependent kinase inhibitor 1C (p57, Kip2): 0.5 fold
Entry with OVX average 310
  Fold change relative to OVX: Insulin-like growth factor 1 (somatomedin C): 6.3 fold
Entry with OVX average 419
  Fold change relative to OVX: Fibronectin 1: 2.4 fold
Entry with OVX average 527
  Fold change relative to OVX: Cyclin-dependent kinase inhibitor 1C (p57, Kip2): 0.4 fold
Entry with OVX average 586
  Fold change relative to OVX: Fibronectin 1: 2.1 fold
Entry with OVX average 648
  Fold change relative to OVX: Fibronectin 1: 1.9 fold
Entry with OVX average 690
  Fold change relative to OVX: Collagen, type IV, alpha 1: 3.7 fold
Entry with OVX average 757
  Fold change relative to OVX: Fibronectin 1: 1.8 fold
Entry with OVX average 762
  Fold change relative to OVX: Cyclin-dependent kinase inhibitor 1C (p57, Kip2): 0.5 fold
Entry with OVX average 811
  Fold change relative to OVX: ATP synthase, H+ transporting, mitochondrial F0 complex, subunit c (subunit 9) isoform 3: 2.0 fold
Entry with OVX average 874
  Fold change relative to OVX: Fibrillin 1 (Marfan syndrome): 3.5 fold
Entry with OVX average 1007
  Fold change relative to OVX: ATP synthase, H+ transporting, mitochondrial F0 complex, subunit c (subunit 9) isoform 3: 2.0 fold
Entry with OVX average 1084
  Fold change relative to OVX: Collagen, type III, alpha 1 (Ehlers-Danlos syndrome type IV, autosomal dominant): 6.8 fold
Entry with OVX average 2757
  Fold change relative to OVX: Collagen, type I, alpha 2: 5.1 fold
Entry with OVX average 3445
  Fold change relative to OVX: Collagen, type III, alpha 1 (Ehlers-Danlos syndrome type IV, autosomal dominant): 4.1 fold
Entry with OVX average 9495
  Fold change relative to OVX: H3 histone, family 3A: 1.5 fold
Entry with OVX average 9692
  Fold change relative to OVX: H3 histone, family 3A: 1.4 fold
Entry with SHAM average 100
  Fold change relative to SHAM control: Fibronectin 1: 0.6 fold
Entry with SHAM average 143
  Fold change relative to SHAM control: Bone morphogenetic protein 1: 1.4 fold
Entry with SHAM average 201
  Fold change relative to SHAM control: Cyclin-dependent kinase inhibitor 1C (p57, Kip2): 0.6 fold
Entry with SHAM average 205
  Fold change relative to SHAM control: Bone morphogenetic protein 1: 1.3 fold
Entry with SHAM average 226
  Fold change relative to SHAM control: Insulin-like growth factor 1 (somatomedin C): 2.4 fold
Entry with SHAM average 236
  Fold change relative to SHAM control: Fibrillin 1 (Marfan syndrome): 1.2 fold
Entry with SHAM average 291
  Fold change relative to SHAM control: Solute carrier family 2 (facilitated glucose/fructose transporter), member 5: 2.1 fold
Entry with SHAM average 317
  Fold change relative to SHAM control: Solute carrier family 2 (facilitated glucose/fructose transporter), member 5: 2.4 fold
Entry with SHAM average 417
  Fold change relative to SHAM control: Insulin-like growth factor 1 (somatomedin C): 2.6 fold
Entry with SHAM average 436
  Fold change relative to SHAM control: Collagen, type IV, alpha 1: 1.8 fold
Entry with SHAM average 459
  Fold change relative to SHAM control: Cyclin-dependent kinase inhibitor 1C (p57, Kip2): 0.5 fold
Entry with SHAM average 493
  Fold change relative to SHAM control: Collagen, type I, alpha 2: 4.1 fold
Entry with SHAM average 581
  Fold change relative to SHAM control: Insulin-like growth factor 1 (somatomedin C): 3.4 fold
Entry with SHAM average 660
  Fold change relative to SHAM control: Cyclin-dependent kinase inhibitor 1C (p57, Kip2): 0.5 fold
Entry with SHAM average 920
  Fold change relative to SHAM control: Fibronectin 1: 1.1 fold
Entry with SHAM average 1045
  Fold change relative to SHAM control: ATP synthase, H+ transporting, mitochondrial F0 complex, subunit c (subunit 9) isoform 3: 1.6 fold
Entry with SHAM average 1089
  Fold change relative to SHAM control: Fibronectin 1: 1.1 fold
Entry with SHAM average 1143
  Fold change relative to SHAM control: Collagen, type IV, alpha 1: 2.2 fold
Entry with SHAM average 1288
  Fold change relative to SHAM control: Fibronectin 1: 0.9 fold
Entry with SHAM average 1301
  Fold change relative to SHAM control: Fibronectin 1: 1.1 fold
Entry with SHAM average 1355
  Fold change relative to SHAM control: ATP synthase, H+ transporting, mitochondrial F0 complex, subunit c (subunit 9) isoform 3: 1.5 fold
Entry with SHAM average 1388
  Fold change relative to SHAM control: Fibrillin 1 (Marfan syndrome): 2.2 fold
Entry with SHAM average 2992
  Fold change relative to SHAM control: Collagen, type III, alpha 1 (Ehlers-Danlos syndrome type IV, autosomal dominant): 2.5 fold
Entry with SHAM average 7354
  Fold change relative to SHAM control: Collagen, type III, alpha 1 (Ehlers-Danlos syndrome type IV, autosomal dominant): 1.9 fold
Entry with SHAM average 7758
  Fold change relative to SHAM control: Collagen, type I, alpha 2: 1.8 fold
Entry with SHAM average 9408
  Fold change relative to SHAM control: H3 histone, family 3A: 1.5 fold
Entry with SHAM average 10239
  Fold change relative to SHAM control: H3 histone, family 3A: 1.4 fold
